# Assay results as given in PubChem BioAssay (NCI).
#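 Grown in 96-well plates, cells were treated for 48 hours with each compound at five concentrations. Insufficient inhibition: endpoint recorded as highest concentration tested. The concentration for 50% growth inhibition is given as GI50. TGI: concentration producing complete growth inhibition.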
# Legend:
# Experiment in all cases: NCI anticancer screen, dose series, 48 h
# A498 renal = test system: A498 renal
# ACHN renal = test system: ACHN renal
# BT-549 breast = test system: BT-549 breast
# DU-145 prostate = test system: DU-145 prostate
# MDA-MB-435 = test system: MDA-MB-435
# NCI-H226 lung = test system: NCI-H226 lung
# OVCAR-3 ovarian = test system: OVCAR-3 ovarian
# PC-3 prostate = test system: PC-3 prostate
# RPMI-8226 leukemia = test system: RPMI-8226 leukemia
# SF-295 CNS = test system: SF-295 CNS
# SK-MEL-5 melanoma = test system: SK-MEL-5 melanoma
# SK-OV-3 ovarian = test system: SK-OV-3 ovarian
# SNB-75 CNS = test system: SNB-75 CNS
# TK-10 renal = test system: TK-10 renal
# 786-0 renal = test system: 786-0 renal
# HOP-62 NSCLC = test system: HOP-62 NSCLC
# HS 578T breast = test system: HS 578T breast
# M14 melanoma = test system: M14 melanoma
# OVCAR-4 ovarian = test system: OVCAR-4 ovarian
# RXF 393 renal = test system: RXF 393 renal
# U251 CNS = test system: U251 CNS
# UACC-257 melanoma = test system: UACC-257 melanoma
# A549 NSCLC = test system: A549 NSCLC
# CAKI-1 renal = test system: CAKI-1 renal
# CCRF-CEM leukemia = test system: CCRF-CEM leukemia
# COLO 205 colon = test system: COLO 205 colon
# EKVX NSCLC = test system: EKVX NSCLC
# HCT-15 colon = test system: HCT-15 colon
# HL-60(TB) leukemia = test system: HL-60(TB) leukemia
# HOP-92 NSCLC = test system: HOP-92 NSCLC
# HT29 colon = test system: HT29 colon
# IGROV1 ovarian = test system: IGROV1 ovarian
# K-562 leukemia = test system: K-562 leukemia
# KM12 colon = test system: KM12 colon
# LOX IMVI melanoma = test system: LOX IMVI melanoma
# MALME-3M melanoma = test system: MALME-3M melanoma
# MCF7 breast = test system: MCF7 breast
# MOLT-4 leukemia = test system: MOLT-4 leukemia
# NCI-H23 lung = test system: NCI-H23 lung
# NCI-H460 lung = test system: NCI-H460 lung
# NCI-H522 lung = test system: NCI-H522 lung
# NCI/ADR-RES ovarian = test system: NCI/ADR-RES ovarian
# OVCAR-5 ovarian = test system: OVCAR-5 ovarian
# OVCAR-8 ovarian = test system: OVCAR-8 ovarian
# SF-268 CNS = test system: SF-268 CNS
# SK-MEL-2 melanoma = test system: SK-MEL-2 melanoma
# SK-MEL-28 melanoma = test system: SK-MEL-28 melanoma
# SN12C renal = test system: SN12C renal
# SNB-19 CNS = test system: SNB-19 CNS
# SR leukemia = test system: SR leukemia
# SW-620 colon = test system: SW-620 colon
# UACC-62 melanoma = test system: UACC-62 melanoma
# UO-31 renal = test system: UO-31 renal
smiles,measurement,setting,value
N=C(N)c1ccc(-c2ccc(-c3ccc(Cl)cc3)o2)o1,GI50,A498 renal,2.12 µM
same,TGI,A498 renal,7.59 µM
same,GI50,ACHN renal,1.89 µM
same,TGI,ACHN renal,3.51 µM
same,GI50,BT-549 breast,5.92 µM
same,TGI,BT-549 breast,29.6 µM
same,GI50,DU-145 prostate,1.75 µM
same,TGI,DU-145 prostate,3.27 µM
same,GI50,MDA-MB-435,1.36 µM
same,TGI,MDA-MB-435,2.69 µM
same,GI50,NCI-H226 lung,2.19 µM
same,TGI,NCI-H226 lung,6.46 µM
same,GI50,OVCAR-3 ovarian,1.83 µM
same,TGI,OVCAR-3 ovarian,3.43 µM
same,GI50,PC-3 prostate,1.81 µM
same,TGI,PC-3 prostate,3.38 µM
same,GI50,RPMI-8226 leukemia,2.12 µM
same,TGI,RPMI-8226 leukemia,4.78 µM
same,GI50,SF-295 CNS,1.83 µM
same,TGI,SF-295 CNS,3.32 µM
same,GI50,SK-MEL-5 melanoma,1.81 µM
same,TGI,SK-MEL-5 melanoma,3.21 µM
same,GI50,SK-OV-3 ovarian,1.79 µM
same,TGI,SK-OV-3 ovarian,3.35 µM
same,GI50,SNB-75 CNS,1.5 µM
same,TGI,SNB-75 CNS,2.86 µM
same,GI50,TK-10 renal,2.07 µM
same,TGI,TK-10 renal,3.57 µM
Cc1cc(N2CCCCCC2)nc(NC2CCCC(Nc3ccnc4cc(Cl)ccc34)C2)n1 (stereo not drawn),GI50,786-0 renal,1.27 µM
same,TGI,786-0 renal,2.6 µM
same,GI50,A498 renal,1.44 µM
same,TGI,A498 renal,2.86 µM
same,GI50,ACHN renal,1.54 µM
same,TGI,ACHN renal,2.87 µM
same,GI50,BT-549 breast,1.44 µM
same,TGI,BT-549 breast,3.09 µM
same,GI50,DU-145 prostate,1.61 µM
same,TGI,DU-145 prostate,2.99 µM
same,GI50,HOP-62 NSCLC,1.63 µM
same,TGI,HOP-62 NSCLC,3.15 µM
same,GI50,HS 578T breast,1.8 µM
same,TGI,HS 578T breast,4.42 µM
same,GI50,M14 melanoma,1.19 µM
same,TGI,M14 melanoma,2.74 µM
same,GI50,MDA-MB-435,1.63 µM
same,TGI,MDA-MB-435,3.08 µM
same,GI50,NCI-H226 lung,2.01 µM
same,TGI,NCI-H226 lung,3.76 µM
same,GI50,OVCAR-3 ovarian,1.76 µM
same,TGI,OVCAR-3 ovarian,3.39 µM
same,GI50,OVCAR-4 ovarian,1.56 µM
same,TGI,OVCAR-4 ovarian,3.25 µM
same,GI50,PC-3 prostate,1.63 µM
same,TGI,PC-3 prostate,3.2 µM
same,GI50,RXF 393 renal,1.2 µM
same,TGI,RXF 393 renal,2.58 µM
same,GI50,SF-295 CNS,1.45 µM
same,TGI,SF-295 CNS,2.84 µM
same,GI50,SK-MEL-5 melanoma,1.67 µM
same,TGI,SK-MEL-5 melanoma,3.04 µM
same,GI50,SK-OV-3 ovarian,1.77 µM
same,TGI,SK-OV-3 ovarian,3.23 µM
same,GI50,TK-10 renal,1.99 µM
same,TGI,TK-10 renal,3.54 µM
same,GI50,U251 CNS,1.47 µM
same,TGI,U251 CNS,2.78 µM
same,GI50,UACC-257 melanoma,2.17 µM
same,TGI,UACC-257 melanoma,3.7 µM
CC1(C)C(O)C[C@]23CCC[C@](C)(C[C@@H](O)C12)C3 (stereo partly drawn),TGI,786-0 renal,> 100 µM
same,TGI,A549 NSCLC,> 100 µM
same,TGI,ACHN renal,> 100 µM
same,TGI,BT-549 breast,> 100 µM
same,TGI,CAKI-1 renal,> 100 µM
same,TGI,CCRF-CEM leukemia,> 100 µM
same,TGI,COLO 205 colon,> 100 µM
same,TGI,EKVX NSCLC,> 100 µM
same,TGI,HCT-15 colon,> 100 µM
same,TGI,HL-60(TB) leukemia,> 100 µM
same,TGI,HOP-62 NSCLC,> 100 µM
same,TGI,HOP-92 NSCLC,> 100 µM
same,TGI,HS 578T breast,> 100 µM
same,TGI,HT29 colon,> 100 µM
same,TGI,IGROV1 ovarian,> 100 µM
same,TGI,K-562 leukemia,> 100 µM
same,TGI,KM12 colon,> 100 µM
same,TGI,LOX IMVI melanoma,> 100 µM
same,TGI,M14 melanoma,> 100 µM
same,TGI,MALME-3M melanoma,> 100 µM
same,TGI,MCF7 breast,> 100 µM
same,TGI,MDA-MB-435,> 100 µM
same,TGI,MOLT-4 leukemia,> 100 µM
same,TGI,NCI-H226 lung,> 100 µM
same,TGI,NCI-H23 lung,> 100 µM
same,TGI,NCI-H460 lung,> 100 µM
same,TGI,NCI-H522 lung,> 100 µM
same,TGI,NCI/ADR-RES ovarian,> 100 µM
same,TGI,OVCAR-3 ovarian,> 100 µM
same,TGI,OVCAR-4 ovarian,> 100 µM
same,TGI,OVCAR-5 ovarian,> 100 µM
same,TGI,OVCAR-8 ovarian,> 100 µM
same,TGI,PC-3 prostate,> 100 µM
same,TGI,RPMI-8226 leukemia,> 100 µM
same,TGI,SF-268 CNS,> 100 µM
same,TGI,SF-295 CNS,> 100 µM
same,TGI,SK-MEL-2 melanoma,> 100 µM
same,TGI,SK-MEL-28 melanoma,> 100 µM
same,TGI,SK-MEL-5 melanoma,> 100 µM
same,TGI,SK-OV-3 ovarian,> 100 µM
same,TGI,SN12C renal,> 100 µM
same,TGI,SNB-19 CNS,> 100 µM
same,TGI,SNB-75 CNS,> 100 µM
same,TGI,SR leukemia,> 100 µM
same,TGI,SW-620 colon,> 100 µM
same,TGI,TK-10 renal,> 100 µM
same,TGI,U251 CNS,> 100 µM
same,TGI,UACC-257 melanoma,> 100 µM
same,TGI,UACC-62 melanoma,> 100 µM
same,TGI,UO-31 renal,> 100 µM
